# Reference: US20230263792A1, “USE OF 2,3,5-SUBSTITUTED THIOPHENE COMPOUND FOR PREVENTING, ALLEVIATION, OR TREATING MASTOCYTOSIS” (PHAROS IBIO CO., LTD, priority 2020, published 2023)
# Legend:
# Format in all cases: cell-based
# [1] = system: c-kit D816V mutant Ba/F3 cell line; experiment: Cell cycle FACS assay, c-kit D816V Ba/F3; details: 1 μM, 24 hours, FIGS. 4 and 5
# Description: The c-kit D816V mutant Ba/F3 cell line was treated with 1 μM of PHI-101, and then the SubG1/GO-1 population was analyzed by cell cycle FACS assay.
# Specifically, the c-kit D816V mutant Ba/F3 cell line was adjusted to a concentration of 1×10^6 cells/ml and treated with each of PHI-101 and the control compound sunitinib at a concentration of 1 μM for 24 hours. Thereafter, the medium was removed, and the c-kit D816V mutant Ba/F3 cell line was fixed in 70% ethanol at 4° C. for 24 hours, and then incubated in a PBS buffer solution containing 40 μg/ml of propidium iodide (PI) and 100 μg/ml of RNase for 30 minutes to completely stain the total DNA. Cell cycle analysis of the stained cells was performed using a flow cytometer (FACS-C6, BD). The proportion of cells in G0/G1 phase, S phase and G2/M phase was measured, and based on the measurement results, the SubG1/G0-1 population was determined.
# [2] = system: c-kit phosphorylation and downstream signaling (p-STAT3, p-ERK1/2) in the c-kit D816V mutant Ba/F3 cell line; experiment: Western blot of c-kit phosphorylation and downstream signaling in c-kit D816V Ba/F3; details: 0.1, 1 and 10 μM, 2 hours, FIG. 2
# Description: The inhibitory activities of control compounds and PHI-101 against c-kit phosphorylation and downstream signaling (p-STAT3, p-ERK1/2) in the c-kit D816V mutant Ba/F3 cell line were measured, and as the control compounds, sunitinib and dasatinib were used.
# (§1) Specifically, the c-kit D816V mutant Ba/F3 cell line was dispensed at a concentration of 1×10^6 cells/ml, treated with each of the control compounds and PHI-101 at concentrations of 0.1, 1 and 10 μM, and then cultured for 2 hours. Next, lysates of the cells were obtained using lysis buffer (50 mM Tris-HCl pH 7.5, 1% NP40, 1 mM EDTA, 150 mM NaCl, 5 mM, Na3VO4 and 2.5 mM NaF, and a protease inhibitor cocktail). Equal amounts of the cell lysates were electrophoresed using 8% SDS-PAGE gel at 100 V for 1 hour and 30 minutes, and the separated protein was electrically transferred to nitrocellulose membranes. The membranes were blocked with 5% skim milk at room temperature for 30 minutes, and allowed to react with primary antibodies (diluted 1:5,000), including p-c-kit tyrosine 719 (Y719), p-STAT3 tyrosine 705 (Y705) and p-ERK1/2 threonine 202/tyrosine 204 (T202/Y204) at 4° C. for 16 to 20 hours. […] Next, the membranes were washed three times with TBST for 5 minutes each time and treated with a chemiluminescent substrate reagent, and the expression level of the protein was measured by detecting luminescence with an X-ray film in the dark.
# [3] = system: cleaved PARP and cleaved caspase-3 in HMC-1.2 cell line; experiment: Western blot of cleaved PARP and cleaved caspase-3, HMC-1.2; details: HMC-1.2, 0.1 and 1 μM, controls 1 μM, FIG. 8
# Description: as §1, with “membranes.” for “membranes. The membranes were blocked with 5% skim milk at room temperature for 30 minutes, and allowed to react with primary antibodies (diluted 1:5,000), including p-c-kit tyrosine 719 (Y719), p-STAT3 tyrosine 705 (Y705) and p-ERK1/2 threonine 202/tyrosine 204 (T202/Y204) at 4° C. for 16 to 20 hours.”
# A mastocytosis cell line was treated with PHI-101, and the levels of cleaved PARP and cleaved caspase-3, which are apoptosis markers, were analyzed. […]
# Specifically, the apoptotic effect of PHI-101 against the HMC-1.2 cell line was analyzed in the same manner as in Example 1-2, except that the HMC-1.2 cell line was treated with each of the control compounds at a concentration of 1 μM and PHI-101 at concentrations of 0.1 and 1 μM, and that cleaved PARP and cleaved caspase-3, each diluted at 1:5,000, were used as primary antibodies.
# [4] = system: c-kit phosphorylation and downstream signaling (p-STAT5, p-AKT, p-ERK) in HMC-1.2 cell line; experiment: Western blot of c-kit phosphorylation and downstream signaling in HMC-1.2; details: FIG. 6
# Description: as §1
# The inhibitory activities of control compounds and PHI-101 against c-kit phosphorylation and downstream signaling (p-STAT5, p-AKT, p-ERK) in a mastocytosis cell line were measured, and as the control compounds, imatinib and sunitinib were used. […]
compound,measurement,setting,value
NC(=O)Nc1cc(C#Cc2cccc(F)c2)sc1C(=O)N[C@H]1CCCNC1 [PHI-101],SubG1/G0-1 population (cell cycle progression),[1],SubG1/G0-1 population was increased
same,inhibitory activity against p-c-kit (Y719) phosphorylation,[2],higher inhibitory activity against p-c-kit (Y719) phosphorylation than the control compounds
same,levels of cleaved PARP and cleaved caspase-3,[3],higher than those in the HMC-1.2 cell lines treated with the control compounds
same,downstream signaling inhibition,[4]; 0.1 μM,strongly inhibited downstream signaling
same,c-kit phosphorylation and downstream signaling,"[4]; 0.01, 0.1 and 1 μM",decreased c-kit phosphorylation and downstream signaling in a concentration-dependent manner
